Results from patent US8673554B2, “Multiplex cell signalling assays” (Ge Healthcare UK Limited, priority 2008, dated 2014).

How the values were obtained:
Format in all cases: cell-based, human
U2OS cells [1] = experiment: Calcium transient (Fluo-4 fluorescence) in stimulated U2OS cells, IN Cell Analyzer 1000; settings: for cytosolic intracellular calcium (emitted fluorescence of Fluo-4): test agent 1.56-100 μM, over eight minutes, peak and decline, dose dependent, FIG. 1 / FIG. 4
Description: i) U2OS cells were seeded into 96-well Greiner cluster plates at 6000 cell/well in 100 μl of complete McKoys media and incubated overnight at 37° C., 5% CO2.
ii) Loading buffer was prepared with 42.8 ml of calcium flux buffer with 6.65 ml of 7.5% albumin This buffer was stored at 37° C.
iii) 120 ml of maintenance buffer was prepared with 118.16 ml calcium flux buffer and 1840 μl of 7.5% albumin

U2OS cells [2] = experiment: Cell-associated IL-6, chemiluminescent anti-IL-6-HRP assay on LEADSEEKER imaging system, same cells after the calcium transient; settings: after stimulation (A23187 4 hours, histamine overnight); FIG. 3 / FIG. 5
Description: Cells were contacted with the test agent (calcium ionophore A23187) for 4 hours and cell-associated IL-6 measured post cell-stimulation with the test agent. After stimulation, the cell supernatant was decanted, the cells were washed thoroughly X3 with PBS, before incubating with the anti-IL-6 antibody. The cells were washed ×3 with PBS before addition of the chemiluminescent substrate. Results from the calcium transient were obtained prior to the IL-6 results using the same population of cells. The results (FIG. 3) were obtained using a […] ™ Multimodality Imaging System, exposing for 20 seconds, using the chemiluminescent substrate and the luminescent signal reporter (anti-IL-6 labelled with the enzyme horseradish peroxidise).
The results were obtained on the […] ™ Multimodality Imaging System, exposing for 20 seconds, using the chemiluminescent substrate and the luminescent signal reporter (anti-IL-6 labelled with the enzyme horseradish peroxidise).
iv) 5 mg of calcium ionophore A23187 was dissolved in 1 ml of DMSO. The ionophore was subsequently diluted in complete maintenance buffer to give final concentration of ionophore over the range of 1.56-100 μM. Fluo-4 dye was prepared by adding 456 μl DMSO to a 50 μg vial, and the vial was mixed well to provide a Fluo-4 stock concentration of 100 μM. […]

U2OS cells [3] = experiment: Cell-associated IL-6 immunocytochemistry (Cy5 second antibody) combined with intracellular calcium, IN Cell Analyzer 1000; settings: 4 hours contact; Example 4, FIG. 8
Description: 4. Combination Assay of Intracellular Calcium and Human Interleukin-6 from Calcium Ionophore A23187-Stimulated U2OS Cells on IN Cell Analyzer 1000 4.1 Materials Anti-IL-6 (R&D Systems) Goat anti-human IgG CY™ 5 linked (GE Healthcare) Calcium ionophore A23187 (Sigma) U2OS cells (European Collection of Cell Cultures, Porton Down, UK) 4.2 Method and Results i) U2OS cells were seeded into 96-well tissue culture plates at 6000 cell/well in 100 μl of complete McKoys media and incubated overnight at 37° C., 5% CO2. ii) Cells were stimulated with A23187 for 8 minutes before measurement of a calcium transient on an IN Cell Analyzer 1000 as described in Example 1. […] The results from this assay were measured on an IN Cell Analyzer 1000 using a 10× objective, 505 light pass dichroic 475/535 filter set 200 ms exposure. […] Cells were contacted with the test agent (calcium ionophore A23187) for 4 hours and cell-associated IL-6 measured post cell-stimulation with test agent. After stimulation with the ionophore, the supernatant was decanted and the cells were washed thoroughly X3 with PBS. […] The results were analysed using an object intensity algorithm (IN Cell Investigator software). […]

[4] = tested on: EGFP-NFATc1 transfected U2OS cells; experiment: EGFP-NFATc1 translocation assay, Nuclear Trafficking Analysis module; settings: 60 minutes incubation; FIG. 11 / FIG. 14
Description: The present patent specification describes a method for monitoring the NFATC1 signalling pathway with a cell-secreted, cell-associated analyte. The assay method is based on the intracellular translocation of an EGFP-NFATc1 fusion protein in stably transfected mammalian cells. NFATc1 is a transcription factor involved in T-cell signalling and tissue development. […] Following activation with agonists these translocate to the nucleus.
The NFAT assay is optimised for image acquisition and analysis on the IN Cell Analysis System (GE Healthcare) using the Nuclear Trafficking-Analysis Module, although the assay can be imaged on other systems. The Nuclear Trafficking-Analysis Module measures the degree of EGFP-NFAT translocation from the cytoplasm to the nucleus on the addition of agonists.
• 1. Incubate the microplate at 37° C., 5% CO2 and 95% humidity. • 2. The day before commencing the assay, seed at 1×10^4 cells per well in 200 μl of growth medium. Incubate for 24 hours at 37° C. If one of the wells on the cell plate is used for flat field correction, it should not contain cells. • 3. […]
• 1. […] Cells were contacted with test agent for a further 3-18 hours and cell associated TNF, IL-8 or PDGF was measured post stimulation with test agent. • 8. […] The results were analysed using an object intensity algorithm (IN Cell Investigator software). […]

[5] = tested on: EGFP-NFAT1c transfected U2OS cells; experiment: Cell-associated PDGF immunofluorescence combined with EGFP-NFAT1c translocation; settings: further 3-18 hours contact; FIG. 12
Description: • 1. The day before commencing the assay, seed EGFP-NFATc1 transfected U2OS cells at 1×10^4 cellsper well in 200 μl of growth medium. • 2. On the day of the assay, prepare the test agent (ionomycin, ionomycin+PMA, A23187). These samples are typically prepared in assay medium. • 3. Decant the growth medium from the cell plate, removing all excess liquid and add 200 μl. Using the cell culture medium, wash the cells. Decant the wash. • 4. Add […] assay medium containing test agent. Incubate for 60 minutes. • 5. The total volume is 200 μl. After the suitable incubation period, image the plate on the IN Cell Analyzer 1000 using appropriate filters and dichroic mirror. • 6. Carry out the data analysis using the Nuclear Trafficking Analysis module. • 7. Cells were contacted with test agent for a further 3-18 hours and cell associated TNF, IL-8 or PDGF was measured post stimulation with test agent. • 8. After stimulation with the test agent, the supernatant was decanted and the cells were washed ×3 with PBS. […] The results were analysed using an object intensity algorithm (IN Cell Investigator software). […]

Row | SMILES | intracellular calcium compared with the unstimulated (zero ionophore) control (U2OS cells [1]; 1.56 μM ionophore, 8 minutes stimulation, FIG. 7) | intracellular calcium with increasing concentration of the ionophore (U2OS cells [1]; Example 4, FIG. 8) | cytosolic intracellular calcium (emitted fluorescence of Fluo-4) (U2OS cells [1]) | cell-associated IL-6 (U2OS cells [2]) | cell-associated IL-6 with increasing concentration of the ionophore (U2OS cells [3]) | EGFP-NFAT1c translocation [4] | cell-associated PDGF release [5]
1 | CNc1ccc2oc(C[C@H]3O[C@@]4(CC[C@H]3C)O[C@H]([C@H](C)C(=O)c3ccc[nH]3)[C@H](C)C[C@H]4C)nc2c1C(=O)O [calcium ionophore A23187, Calcium ionophore A23187] | increase in intracellular calcium | dose-dependent rise | increase in cytosolic intracellular calcium | increase in cell-associated IL-6 | dose-dependent rise | EGFP-NFAT1c cell response | –
2 | NCCc1c[nH]cn1 [histamine, Histamine] | – | – | increase in cytosolic intracellular calcium | increase in cell-associated IL-6 | – | – | –
3 | C[C@H](CCC(=O)O)C[C@H](C)C[C@H](C)C(=O)/C=C(\O)[C@H](C)C[C@H](C)C/C=C/[C@@H](C)[C@@H](O)[C@@H](C)[C@@H](O)C[C@@H]1CC[C@@](C)([C@H]2CC[C@@](C)([C@@H](C)O)O2)O1 [ionomycin, Ionomycin] | – | – | – | – | – | EGFP-NFAT1c cell response | PDGF release
